Assay results: patent US7276528B2, “Compounds for the inhibition of nitric oxide synthase” (AstraZeneca AB, priority 2001, dated 2007)
Structures can show the parent of a compound that is named as a salt.

How the values were obtained:
Format in all cases: biochemical
Settings in all cases: recombinant human enzyme expressed in E. coli; 60 min pre-incubation with NADPH; 3 μM [3H]arginine
Recombinant human eNOS = target: T1, Recombinant human eNOS (Homo sapiens, UniProt P29474); assay: Screen 2: recombinant human NO synthase inhibition, L-[3H]citrulline formation (eNOS)
T1 construct: made in house; host or cells: E. coli (lysate)

Recombinant human nNOS = target: T2, Recombinant human nNOS (Homo sapiens, UniProt P29475); assay: Screen 2: recombinant human NO synthase inhibition, L-[3H]citrulline formation (nNOS)
T2 construct: made in house; host or cells: E. coli (lysate)
Experimental: (§1) Recombinant human NO synthases (iNOS, eNOS & nNOS) were expressed in E. coli and lysates were prepared in Hepes buffer (pH 7.4) containing co-factors (FAD, FMN, H4B), protease inhibitors, lysozyme and the detergent, CHAPS. These preparations were used, at suitable dilution, to assess inhibition of the various isoforms. Inhibition of NOS was determined by measuring the formation of L-[^3H]citrulline from L-[^3H]arginine using an adaptation of the method of Förstermann et al. Enzyme assays were performed in the presence of 3 μM [^3H]arginine, 1 mM NADPH and other co-factors required to support NOS activity (FAD, FMN, H4B, calmodulin, Ca^2+). […] Incubations continued for a further 60 min before the assays were quenched and [^3H]citrulline separated from unreacted substrate by chromatography on Dowex-50 W resin in a 96-well format.

Recombinant human iNOS = target: T3, Recombinant human iNOS (Homo sapiens, UniProt P35228); assay: Screen 2: recombinant human NO synthase inhibition, L-[3H]citrulline formation (iNOS)
T3 construct: made in house; host or cells: E. coli (lysate)
Experimental: as §1

T1 sequence (P29474 whole entry): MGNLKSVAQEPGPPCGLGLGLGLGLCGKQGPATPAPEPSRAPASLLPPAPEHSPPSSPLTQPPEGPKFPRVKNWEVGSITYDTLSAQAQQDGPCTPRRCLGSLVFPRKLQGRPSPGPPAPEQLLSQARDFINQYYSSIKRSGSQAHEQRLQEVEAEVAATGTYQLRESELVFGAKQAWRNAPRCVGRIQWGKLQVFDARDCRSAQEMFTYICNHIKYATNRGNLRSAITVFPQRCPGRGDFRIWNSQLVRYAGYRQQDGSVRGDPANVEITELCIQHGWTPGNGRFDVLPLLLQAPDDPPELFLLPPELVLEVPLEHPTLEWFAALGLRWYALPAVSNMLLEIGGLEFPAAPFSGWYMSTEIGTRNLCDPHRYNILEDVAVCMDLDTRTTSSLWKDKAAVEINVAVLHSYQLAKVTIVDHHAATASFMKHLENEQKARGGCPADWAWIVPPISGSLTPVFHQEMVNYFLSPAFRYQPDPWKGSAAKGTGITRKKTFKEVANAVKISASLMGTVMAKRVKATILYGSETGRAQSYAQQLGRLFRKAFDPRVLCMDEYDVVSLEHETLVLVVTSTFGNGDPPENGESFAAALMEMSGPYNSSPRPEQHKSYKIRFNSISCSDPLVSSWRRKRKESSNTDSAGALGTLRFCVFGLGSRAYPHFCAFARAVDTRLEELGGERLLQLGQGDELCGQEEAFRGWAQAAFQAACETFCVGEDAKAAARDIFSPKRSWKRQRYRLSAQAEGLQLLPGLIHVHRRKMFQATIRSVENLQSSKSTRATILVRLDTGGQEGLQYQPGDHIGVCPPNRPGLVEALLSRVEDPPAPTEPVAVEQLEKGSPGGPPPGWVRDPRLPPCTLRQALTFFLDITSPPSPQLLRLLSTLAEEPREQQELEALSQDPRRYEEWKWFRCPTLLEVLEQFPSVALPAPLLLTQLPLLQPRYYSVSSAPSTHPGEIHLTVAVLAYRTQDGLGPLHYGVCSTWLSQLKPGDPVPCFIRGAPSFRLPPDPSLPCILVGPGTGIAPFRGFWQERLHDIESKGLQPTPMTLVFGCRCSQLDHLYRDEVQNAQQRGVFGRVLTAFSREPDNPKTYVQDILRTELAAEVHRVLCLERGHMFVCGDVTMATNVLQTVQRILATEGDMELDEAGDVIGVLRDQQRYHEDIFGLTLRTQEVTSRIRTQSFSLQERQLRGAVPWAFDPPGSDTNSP
T2 sequence (P29475 whole entry): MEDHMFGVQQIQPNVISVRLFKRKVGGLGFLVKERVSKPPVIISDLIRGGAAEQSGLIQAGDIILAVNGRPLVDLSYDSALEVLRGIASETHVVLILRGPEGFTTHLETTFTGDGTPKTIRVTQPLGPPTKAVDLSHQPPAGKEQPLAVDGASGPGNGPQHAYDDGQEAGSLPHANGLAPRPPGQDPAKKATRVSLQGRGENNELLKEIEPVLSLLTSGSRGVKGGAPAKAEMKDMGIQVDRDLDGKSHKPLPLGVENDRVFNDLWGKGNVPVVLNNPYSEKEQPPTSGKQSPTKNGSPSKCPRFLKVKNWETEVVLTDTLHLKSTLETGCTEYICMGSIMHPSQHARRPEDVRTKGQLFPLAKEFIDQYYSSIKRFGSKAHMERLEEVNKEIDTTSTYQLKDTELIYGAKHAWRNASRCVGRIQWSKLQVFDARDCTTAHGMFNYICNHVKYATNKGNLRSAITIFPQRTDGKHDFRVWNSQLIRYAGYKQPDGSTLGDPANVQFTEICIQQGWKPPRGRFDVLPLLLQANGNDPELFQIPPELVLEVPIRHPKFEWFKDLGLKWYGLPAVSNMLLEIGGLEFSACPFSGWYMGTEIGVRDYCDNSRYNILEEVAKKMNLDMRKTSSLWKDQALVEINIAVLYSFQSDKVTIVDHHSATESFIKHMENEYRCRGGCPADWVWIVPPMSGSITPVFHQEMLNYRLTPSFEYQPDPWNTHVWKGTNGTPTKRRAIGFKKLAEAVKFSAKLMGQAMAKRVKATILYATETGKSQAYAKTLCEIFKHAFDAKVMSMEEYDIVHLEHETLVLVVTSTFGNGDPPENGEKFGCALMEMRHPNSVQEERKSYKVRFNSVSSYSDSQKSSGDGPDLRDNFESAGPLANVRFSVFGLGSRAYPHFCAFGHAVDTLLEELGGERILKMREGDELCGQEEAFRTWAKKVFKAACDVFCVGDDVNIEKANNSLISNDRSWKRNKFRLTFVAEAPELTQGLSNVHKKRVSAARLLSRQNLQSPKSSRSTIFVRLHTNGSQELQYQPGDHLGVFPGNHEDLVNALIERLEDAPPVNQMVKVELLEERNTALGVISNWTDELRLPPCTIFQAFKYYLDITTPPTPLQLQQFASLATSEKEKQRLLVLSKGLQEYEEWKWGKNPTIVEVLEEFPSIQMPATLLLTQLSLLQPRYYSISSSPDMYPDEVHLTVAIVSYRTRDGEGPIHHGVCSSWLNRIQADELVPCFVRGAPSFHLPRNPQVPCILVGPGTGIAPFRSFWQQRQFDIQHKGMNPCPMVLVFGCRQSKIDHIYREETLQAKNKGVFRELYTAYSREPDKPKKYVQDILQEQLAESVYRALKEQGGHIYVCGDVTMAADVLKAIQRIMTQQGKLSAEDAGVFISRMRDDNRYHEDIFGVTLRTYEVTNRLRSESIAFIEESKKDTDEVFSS
T3 sequence (P35228 whole entry): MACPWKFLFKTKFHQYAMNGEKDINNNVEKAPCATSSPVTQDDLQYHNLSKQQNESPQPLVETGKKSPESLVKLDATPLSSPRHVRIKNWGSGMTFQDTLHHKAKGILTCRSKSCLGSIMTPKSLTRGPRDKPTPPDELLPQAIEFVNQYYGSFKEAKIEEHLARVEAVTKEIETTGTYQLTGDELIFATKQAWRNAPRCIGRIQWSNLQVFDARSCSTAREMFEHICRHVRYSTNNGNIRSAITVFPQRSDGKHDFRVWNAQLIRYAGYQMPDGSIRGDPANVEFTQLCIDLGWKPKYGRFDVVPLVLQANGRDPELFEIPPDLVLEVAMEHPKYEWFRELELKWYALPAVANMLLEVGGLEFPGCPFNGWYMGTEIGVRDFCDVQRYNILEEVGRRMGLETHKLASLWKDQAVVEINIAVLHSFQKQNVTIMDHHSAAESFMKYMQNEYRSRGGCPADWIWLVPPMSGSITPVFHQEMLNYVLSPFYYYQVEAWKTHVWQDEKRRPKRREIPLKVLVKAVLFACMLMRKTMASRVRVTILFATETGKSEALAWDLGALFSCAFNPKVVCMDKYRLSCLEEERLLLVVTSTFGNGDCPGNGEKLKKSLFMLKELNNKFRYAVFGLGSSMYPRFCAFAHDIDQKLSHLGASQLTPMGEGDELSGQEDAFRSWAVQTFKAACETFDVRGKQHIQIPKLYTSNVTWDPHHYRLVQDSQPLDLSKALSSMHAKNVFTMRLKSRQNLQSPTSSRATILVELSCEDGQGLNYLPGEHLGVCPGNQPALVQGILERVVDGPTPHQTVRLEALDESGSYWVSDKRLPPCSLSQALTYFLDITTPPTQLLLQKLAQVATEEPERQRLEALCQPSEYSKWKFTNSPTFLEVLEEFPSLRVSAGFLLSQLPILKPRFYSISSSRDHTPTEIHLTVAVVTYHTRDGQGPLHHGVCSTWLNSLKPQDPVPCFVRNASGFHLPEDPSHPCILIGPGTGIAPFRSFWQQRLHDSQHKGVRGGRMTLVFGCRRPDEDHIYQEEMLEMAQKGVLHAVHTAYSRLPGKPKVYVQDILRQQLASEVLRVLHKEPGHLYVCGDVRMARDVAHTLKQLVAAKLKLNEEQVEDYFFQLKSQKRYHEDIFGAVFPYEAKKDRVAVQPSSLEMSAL

IC50 (Recombinant human eNOS)	IC50 (Recombinant human nNOS)	IC50 (Recombinant human iNOS)	Compound
5.4 µM	0.039 µM	0.16 µM	CNCc1ccc(Oc2cc(Cl)ccc2C#N)c2ccccc12 [Example 24, 4-Chloro-2-[4-(methylaminomethyl)naphthalen-1-yloxy]benzonitrile fumarate]
44 µM	0.2 µM	0.09 µM	CN(C)Cc1cccc(Oc2cc(Cl)ccc2C#N)c1 [Example 25, 4-Chloro-2-[3-(dimethylaminomethyl)phenoxy]benzonitrile fumarate]
0.34 µM	0.0048 µM	0.0029 µM	CNCc1cccc(Oc2cc(Cl)ccc2C#N)c1 [Example 10, 4-Chloro-2-(3-methylaminomethyl-phenoxy)-benzonitrile fumarate]
